# Source: patent US9540615B2, “Combined chemical and genetic approaches for generation of induced pluripotent stem cells” (The Scripps Research Institute, priority 2008, dated 2017)
# Assays:
# Format in all cases: cell-based, mouse
# mES R1 cells = assay: Proliferation assay; conditions: 2 μM BayK, 1 μM BIX or both; 15, 24 and 48 hours; compared to DMSO, n=3
# Method: mES R1 cells were plated onto gelatin-coated 6-well plates at a density of 2×10^5 cells/well in complete mES cell media. Upon cell attachment, app. 12 hours, the cells were treated either with DMSO, 1 μM BIX, 2 μM BayK, and a combination of both, in triplicate. At 15, 24 and 48 hours, the cells were detached using trypsin, and counted using a hemocytometer. Trypan blue (Sigma-Aldrich, St. Louis, Mo.) was used for dead cell exclusion.
# [1] = tested on: primary OG2 neural progenitor cells; assay: iPS cell induction from neural progenitor cells by retroviral transduction and BIX01294 treatment
# Method: The reporter neural progenitor cells were generated using a well established protocol by differentiating the Oct4-GiP mESCs grown in monolayer on gelatin in a chemically defined medium/CDM condition in the absence of serum and other growth factors/cytokines at low cell density for eight days, followed by neurophere formation and subsequent serial passaging in single cells in neural cell expansion media supplemented with 10 ng/ml of bFGF and EGF in monolayer for over six passages/24 days. The resulting neural progenitor cells were homogenous by cell morphology and neural marker expression, and were confirmed to be GFP negative and puromycin sensitive. Such neural progenitor cells plated in monolayer in conventional mESC growth media were transduced with combinations of four, three, or two of the four factors, followed by treating the transduced cells with individual small molecules from a small known drug collection in a typical 6-well format. The compound treatment and culture were continued for additional ten days before puromycin was added. The number of green and puro-resistant colonies was counted at day 14. In comparison to the only four-gene transduced neural cells as the positive control, compound conditions that generated more green colonies than the corresponding gene-only conditions were picked as primary hits. To further confirm these primary hit conditions, we chose to use a late passage of mouse CNS neural progenitor cells (Do, J. T. et al., Stem Cells 25, 1013-1020 (2007)) that were derived from fetal brain of OG2^+/−/ROSA26^+/− transgenic mice (which contain an Oct4-GFP reporter) and expanded in monolayer under the same neural CDM condition as the above with 10 ng/ml of bFGF and EGF. Such cells truly from a non-pluripotent tissue would be devoid of concerns of any contaminating ES cell in the above screening system, which is although highly unlikely with all appropriate controls. Similar culture conditions and reprogramming assays were performed using the OG2 neural progenitor cells except that puromycin was not used and green colonies were picked out and characterized by staining of Nanog, SSEA1 and ALP.
# mESC-derived or primary OG2 mouse neural progenitor cells were plated into Matrigel (1:50, BD Biosciences) coated 6-well plates at 3.5×10^4 cells/well in the neural progenitor cell expansion media. After one day these cells were transduced with retrovirus for overnight, and the medium was changed into the mESC growth media [DMEM, 5% FBS, 10% KSR, 1× non-essential amino acids (Gibco), 2 mM L-glutamine (Gibco), 0.1 mM β-mercaptoethanol (Gibco) and 10^3 unit/ml LIF (Chemicon)] with or without BIX01294 (0.5-1 μM). GFP-positive iPS cell colonies appeared after 9-14 days, and were picked out and expanded on MEF feeder cells with the mESC growth media.
# [2] = tested on: 129 MEFs transduced with OK (Oct4 and Klf4); assay: Screen for iPSC generation from OK-transduced 129 MEFs (ESC-like colony morphology, ALP staining)
# Method: Unmodified MEFs derived from E13-14 embryos of the 129 mice were used for the initial screen. MEFs were plated on Matrigel at 3.5×10^4 cells/well of a 6-well plate and transduced with OK (retroviral vectors expressing Oct4 and Klf4) alone. Within 14-21 days, treated cells were assessed for the appearance of colonies that had the characteristic embryonic stem cell (ESC), colony morphology and were positive for the pluripotency marker alkaline phosphatase (ALP). Such OK-transduced cells generated only a few small non-compact colonies, which were weakly positive for ALP expression. These colonies initially appeared within 21 days after viral transduction and were difficult to expand. Therefore, such assay system offered a clean background for the identification of small molecules having desirable reprogramming inducing activity. Using this system, compounds from a library of around 2000 known small molecules (see Experimental Procedures below) were screened and were identified as hits when they induced the appearance of ESC colonies that were strongly positive for ALP within 14-21 days after treatment. This image-based method provided a more accurate assessment of reprogramming as compared to homogenous reporter-based assay. BIX appeared to have the strongest effect with reproducible induction of more than 1-2 compact ESC-like colonies with high ALP expression. We observed that when MEFs were treated with BIX after OK viral transduction, compact colonies with strong ALP expression could be readily detected within approximately 14-21 days. These cells were also positive for Nanog, Oct4 and SSEA-1 expression. […] However, the reprogramming efficiency in MEFs transduced with OK and treated with BIX was still low, about 2 colonies/3.5×10^4 cells, in comparison to the four factor-induced reprogramming of MEFs or the OK/BIX NPC reprogramming (Shi, Y. et al., Cell Stem Cell, 2:525-528 (2008)). Therefore, we conducted a second screen using a similar protocol, but where BIX was added to the basal media after OK viral transduction. This provided a more permissive platform to identify new small molecules that could further improve reprogramming efficiency. More importantly, this second screen could facilitate discovery of small molecules that impact reprogramming in a more specific manner, for example by acting on signal transduction pathways rather than on histone or DNA modifying enzymes. In this second screen, we again assayed the library of around 2000 known small molecules (see Experimental Procedures), and confirmed two compounds that were able to act in a synergistic manner with BIX to improve reprogramming based on the criteria of the screen. […] Therefore, RG108 was not pursued further for this study. […]
compound,measurement,setting,value
COc1cc2nc(N3CCCN(C)CC3)nc(NC3CCN(Cc4ccccc4)CC3)c2cc1OC [BIX01294],proliferation of mES cells (cell number),mES R1 cells,No significant difference
same,reprogramming efficiency,"[1]; Klf4/Sox2/cMyc with BIX01294, absence of Oct4 expression",relatively low
same,kinetics of reprogramming,"[1]; Oct4/Klf4 viral transduction, BIX01294 0.5-1 μM",didn't significantly shorten the kinetics of reprogramming
same,reprogramming efficiency (GFP+ iPS cell colonies),"[1]; Oct4/Klf4 viral transduction, BIX01294 0.5-1 μM, 3.5×10^4 cells/well",significantly improve the reprogramming efficiency to or higher than the level of using viral transduction of all four factors
same,time until GFP+ iPS cell colonies appeared,[1]; after transduction with Oct4/Klf4 retroviruses and BIX01294 treatment,12 days
same,generation of iPS cells,"[1]; viral transduction of Klf4, Sox2 and cMyc, absence of Oct4 expression, three factors alone gave no colony",can also generate iPS cells
same,reprogramming efficiency,[2]; MEFs transduced with OK and treated with compound,about 2 colonies/3.5×10^4 cells
same,number of ALP+ colonies that closely resemble the mESC morphology,[2]; OK-transduced MEFs,about 2 colonies
same,induction of compact ESC-like colonies with high ALP expression,"[2]; primary screen, compounds 0.5-2 μM, 14-21 days, 3.5×10^4 cells/well",1-2 colonies
